Source: ChEMBL document CHEMBL1142425, “Bromophenols from the marine red alga Polysiphonia urceolata with DPPH radical scavenging activity” (J Nat Prod, 2008)
pIC50: −log10 of the molar value.

Assay: DPPH radical scavenging activity
Assay type: functional

SMILES | pIC50
Cc1cc(C(C)(C)C)c(O)c(C(C)(C)C)c1 [BUTYLATED HYDROXYTOLUENE] | 4.08
Oc1cc2c(c(Br)c1O)-c1c(cc(Br)c(O)c1O)CC2 | 5.21
O=Cc1cc(Br)c(O)c(Br)c1 | 4.45
Oc1cc2c(c(Br)c1O)COCc1cc(O)c(O)c(Br)c1-2 | 5.09
Oc1cc2c(cc1O)-c1c(cc(Br)c(O)c1O)CC2 | 5.17
CO[C@@H]1Oc2c(O)c(Br)cc3c2-c2c1cc(Br)c(O)c2O[C@H]3OC [URCEOLATOL] | 4.82
O=Cc1cc(O)c(O)c(Br)c1 | 4.69
